The results in this text go back to paper PMC6832705, “Menthol Increases Bendiocarb Efficacy Through Activation of Octopamine Receptors and Protein Kinase A” (Molecules, 2019).

For the test, the target named is T1, acetylcholinesterase (AChE).
T1 construct: gene ace1; native enzyme in collagenase-treated, dissociated terminal abdominal ganglia of males; not purified
As to the kind of experiment: modified Ellman assay, absorbance […] nm. In kind it is biochemical, Periplaneta americana. The conditions noted are these: acetylthiocholine (0.1 mM stock), 15 min pre-incubation with bendiocarb, pH 7.2, 30 °C, no menthol; covalent; read-out: ED50 (the source's name). Background: DTNB colorimetry detects thiols as they appear.

Regarding `CNC(=O)Oc1cccc2c1OC(C)(C)O2` [bendiocarb], the IC50 came out at 100 nM.
